pIC50: −log10 of the molar value. Active and inactive are the calls of the source. The rule behind the calls is not given here.
Assays:
[1] = tested on: HCT-116; assay: Cytotoxicity against human HCT-116 cells assessed as cell survival measured at 2 uM after 72 hrs by MTS assay relative to control; type: functional; conditions: read-out: Activity
[2] = tested on: DLD-1; assay: Cytotoxicity against human DLD-1 cells assessed as cell survival measured at 2 uM after 72 hrs by MTS assay relative to control; type: functional; conditions: read-out: Activity
[3] = tested on: SW480; assay: Cytotoxicity against human SW480 cells assessed as cell survival measured at 2 uM after 72 hrs by MTS assay relative to control; type: functional; conditions: read-out: Activity
[4] = tested on: U-87 MG; assay: Cytotoxicity against human U-87 MG cells assessed as cell survival measured at 2 uM after 72 hrs by MTS assay relative to control; type: functional, U-87MG ATCC; conditions: read-out: Activity
[5] = tested on: MDA-MB-231; assay: Cytotoxicity against human MDA-MB-231 cells assessed as cell survival measured at 2 uM after 72 hrs by MTS assay relative to control; type: functional; conditions: read-out: Activity
[6] = tested on: MCF7; assay: Cytotoxicity against human MCF7 cells assessed as cell survival measured at 2 uM after 72 hrs by MTS assay relative to control; type: functional; conditions: read-out: Activity
[7] = tested on: DLD-1; assay: Cytotoxicity against human DLD1 cells assessed as growth inhibition after 72 hrs by MTS assay; type: functional, cell-based; conditions: DLD-1, 72 h
[8] = tested on: MDA-MB-231; assay: Cytotoxicity against human MDA-MB-231 cells assessed as growth inhibition after 72 hrs by MTS assay; type: functional, cell-based; conditions: MDA-MB-231, 72 h
[9] = tested on: HCT-116; assay: Reduction in mitotic exit in human HCT-116 cells at 2 uM measured upto 24 hrs by flow cytometry; type: functional, cell-based
[10] = tested on: DLD-1; assay: Induction of cell cycle arrest in human DLD-1 cells assessed as reduced progression of S phase (T8) at 2 uM measured upto 24 hrs by flow cytometry; type: functional, cell-based
[11] = tested on: DLD-1; assay: Induction of cell cycle arrest in human DLD-1 cells assessed as reduced progression of G2/M phase (T12) at 2 uM measured upto 24 hrs by flow cytometry; type: functional, cell-based
[12] = tested on: HCT-116; assay: Effect on cell cycle progression in thymidine synchronized human HCT-116 cells assessed as increase in MPM2 phosphorylation in presence of 0.2 uM of colchicine at 2 uM by Western blot analysis; type: functional, cell-based
[13] = tested on: HCT-116; assay: Effect on cell cycle progression in thymidine synchronized human HCT-116 cells assessed as increase in cyclin B1 phosphorylation in presence of 0.2 uM of colchicine at 2 uM by Western blot analysis; type: functional, cell-based
[14] = tested on: HCT-116; assay: Effect on cell cycle progression in thymidine synchronized human HCT-116 cells assessed as increase in histone H3 phosphorylation in presence of 0.2 uM of colchicine at 2 uM by Western blot analysis; type: functional, cell-based
[15] = tested on: HCT-116; assay: Effect on cell cycle progression in thymidine synchronized human HCT-116 cells assessed as prevention of cells entering from mitosis in presence of colchicine at 2 uM by Western blot analysis; type: functional, cell-based
[16] = tested on: HCT-116; assay: Induction of apoptosis in human HCT-116 cells assessed as reduction in number of cells at G1 phase at 1 uM measured after 72 hrs by flow cytometry; type: functional, cell-based
[17] = tested on: HCT-116; assay: Induction of apoptosis in human HCT-116 cells assessed as reduction in number of cells at S phase at 1 uM measured after 72 hrs by flow cytometry; type: functional, cell-based
[18] = tested on: HCT-116; assay: Induction of apoptosis in human HCT-116 cells assessed as reduction in number of cells at G2/M phase at 1 uM measured after 72 hrs by flow cytometry; type: functional, cell-based

Row | SMILES | viability at 2 µM [1] [%] | viability at 2 µM [2] [%] | viability at 2 µM [3] [%] | viability at 2 µM [4] [%] | viability at 2 µM [5] [%] | viability at 2 µM [6] [%] | pIC50 [7] | pIC50 [8] | Activity [9] | Activity [10] | Activity [11] | Activity [12] | Activity [13] | Activity [14] | Activity [15] | Activity [16] | Activity [17] | Activity [18]
1 | Nc1cccc2c1C(=O)C(Cl)=C(NCCN1CCOCC1)C2=O | 98 | 91.3 | 96 | 95.9 | 98 | 98.9 | – | – | – | – | – | – | – | – | – | – | – | –
2 | O=C1C(Cl)=C(NCCN2CCOCC2)C(=O)c2cc(Br)ccc21 | 86.8 | 10.3 | 99.7 | 86.8 | 80.3 | 105 | – | – | – | – | – | – | – | – | – | – | – | –
3 | O=C1C(Cl)=C(NCCN2CCOCC2)C(=O)c2c1cccc2[N+](=O)[O-] | 100 | 93.2 | 97.8 | 105 | 98.2 | 109 | – | – | – | – | – | – | – | – | – | – | – | –
4 | O=C1C(Cl)=C(NCCN2CCOCC2)C(=O)c2ncccc21 | 61.8 | 82 | 93.9 | 82 | 94.4 | 79.6 | < 5.70 | < 5.70 | Active | Active | Active | Active | Active | Active | Active | inactive | inactive | inactive
5 | O=C1C(NCCCCN2CCOCC2)=C(Cl)C(=O)c2ncccc21 | 4.18 | 42.2 | – | 105 | 81.8 | 92.8 | 5.77 | 6.17 | – | – | – | – | – | – | – | – | – | –
6 | O=C1C(Cl)=C(NCCCCCN2CCOCC2)C(=O)c2ncccc21 | 59.7 | 78.9 | 98.1 | 79.6 | 85.9 | 84.7 | – | – | – | – | – | – | – | – | – | – | – | –
7 | O=C1C(NCCN2CCOCC2)=C(Cl)C(=O)c2c1cccc2[N+](=O)[O-] | 86.3 | 59.9 | 89.3 | 84.6 | 99.3 | 88.9 | – | – | – | – | – | – | – | – | – | – | – | –
8 | O=C1C(Cl)=C(NCCN2CCOCC2)C(=O)c2ccc(Br)cc21 | 89.3 | 75.6 | 105 | 91.6 | 85.4 | 100 | – | – | – | – | – | – | – | – | – | – | – | –
9 | O=C1C(Cl)=C(NCCN2CCOCC2)C(=O)c2ccccc21 | 90.1 | 97.6 | 100 | 99 | 89.8 | 103 | – | – | – | – | – | – | – | – | – | – | – | –
10 | O=C1C(Cl)=C(NCCN2CCOCC2)C(=O)c2cnccc21 | 65.1 | 75.1 | 100 | 89.3 | 85.2 | 16.4 | – | – | – | – | – | – | – | – | – | – | – | –
11 | O=C1C(Cl)=C(NCCN2CCOCC2)C(=O)c2ccc([N+](=O)[O-])cc21 | 99.7 | 97.8 | 94.2 | 106 | 92.9 | 106 | – | – | – | – | – | – | – | – | – | – | – | –

Source: ChEMBL document CHEMBL5620384, “6-Regioisomeric 5,8-quinolinediones as potent CDC25 inhibitors against colorectal cancers” (Eur J Med Chem, 2023)
